# According to patent US10813944B2, “Cyclodextrins as procoagulants” (STICHTING SANQUIN BLOEDVOORZIENING, priority 2016, dated 2020):
# Columns and labels:
# [1] = system: mice anticoagulated with rivaroxaban; experiment: In vivo saphenous vein bleeding model in mice anticoagulated with rivaroxaban
# Description: FIG. 29: In vivo analysis of procoagulant potential of OK-1111 and OKL-1147. Except for controls, animals were treated with rivaroxaban for 4 days and cyclodextrins were administered 5 min prior bleeding assay.
# All animal protocols were approved by the Institutional Animal Care and Use Committee of the University of North Carolina. C57BL6/J mice were purchased from Charles Rivers Laboratories (Willmington, Mass.). Bleeding studies were done essentially as previously described Pastoft et al. (Haemophilia 2012; 18:782-8). Mice were anesthetized with isoflurane throughout all procedures. The hair on the ventral side of both hind limbs was removed. The animals were placed supine on a temperature and ECG monitoring board. The paws were gently restrained by looping soft polyethylene tubing around them and attaching the tubing to the ECG board. The skin on the left and right ventral hind limb was incised which exposes a length of the saphenous neurovascular bundle; the bundle was covered with normal saline to prevent drying. To assess haemostasis, the right saphenous vein was transected by piercing it with a 23-G needle followed by a longitudinal incision made in the distal portion of the vessel. Blood was gently wicked away until haemostasis occurred. The clot was then removed to restart bleeding and the blood was again wicked away until haemostasis occurs again. Clot disruption was repeated after every incidence of haemostasis for 30 minutes. Mice were fed chow that contained 0.1 mg rivaroxaban per g of chow. The mice were on this diet for 4 days to allow them to reach a steady state. Cyclodextrins were administered by a tail vein injection 5 minutes before the start of the bleeding assay. Two parameters were measured: 1) the number of times that haemostasis occurs in a 30 minute period, and 2) the time required for each haemostasis.
# [2] = system: thrombin generation in pooled normal plasma; experiment: Calibrated Automated Thrombogram thrombin generation assay in pooled normal plasma; assay type: biochemical, human; conditions: for procoagulant effect in normal plasma: no anticoagulant, cyclodextrin 100 μM unless otherwise indicated, 1 pM TF
# Description: (§1) FIGS. 3-8, 12, 14-19 and 22-27: Pooled normal plasma was spiked with cyclodextrins (100 μM, unless otherwise indicated) and anticoagulants. The concentrations of the anticoagulants were 100 ng/ml for dabigatran (A), 100 ng/ml for rivaroxaban (B), 60 ng/ml for apixaban (C), 60 ng/ml for edoxaban (D). The plasmas were subjected to thrombin generation analysis as described in the Materials and Methods section with 1 pM tissue factor (TF) as initiator of coagulation.
# (§2) The Calibrated Automated Thrombogram® assays the generation of thrombin in clotting plasma using a microtiter plate reading fluorometer (Fluoroskan Ascent, ThermoLab systems, Helsinki, Finland) and Thrombinoscope® software (Thrombinoscope BV, Maastricht, The Netherlands). The assay was carried out as described by Hemker et al. (Pathofysiol. IIaemost. Thromb. 2003, 33, 4-15), and the Thrombinoscope® manual. Coagulation was triggered by recalcification in the presence of 1 or 5 pM recombinant human tissue factor (Innovin®, Siemens, Marburg, Germany), 4 μM phospholipids, and 417 μM fluorogenic substrate Z-Gly-Gly-Arg-AMC (Bachem, Bubendorf, Switzerland). Fluorescence was monitored using the Fluoroskan Ascent fluorometer (ThermoLabsystems, Helsinki, Finland), and the lag time, peak thrombin, velocity index and area under the curve (ETP) were calculated using the Thrombinoscope® software (Thrombinoscope BV).
# Thrombin generation analyses were performed in pooled normal plasma with and without the addition of anticoagulants.
# [3] = system: thrombin generation in pooled normal plasma spiked with anticoagulants; experiment: Thrombin generation assay in pooled normal plasma spiked with anticoagulants; assay type: biochemical, human; conditions: for effect on the anticoagulant effect of apixaban: apixaban 60 ng/ml; for effect on the anticoagulant effect of apixaban / effect on the anticoagulant effect of dabigatran / effect on the anticoagulant effect of edoxaban / effect on the anticoagulant effect of rivaroxaban: cyclodextrin 100 μM, 1 pM TF; for effect on the anticoagulant effect of dabigatran: dabigatran 100 ng/ml; for effect on the anticoagulant effect of edoxaban: edoxaban 60 ng/ml; for effect on the anticoagulant effect of rivaroxaban: rivaroxaban 100 ng/ml
# Description: as §1
# FIG. 9: Pooled normal plasma was spiked with OKL-1111 (100 μM, unless otherwise indicated (A)) and anticoagulants (B-E). The concentrations of the anticoagulants were 100 ng/ml for dabigatran (B), 100 ng/ml for rivaroxaban (C), 60 ng/ml for apixaban (D), 60 ng/ml for edoxaban (E). The plasmas were subjected to thrombin generation analysis as described in the Materials and Methods section with 1 pM tissue factor (TF) as initiator of coagulation.
# FIG. 10: Pooled normal plasma was spiked with OKL-1111 (100 μM) and anticoagulants (A-F). The concentrations of the anticoagulants were 2 μg/ml for fondaparinux (A), 0.4 U/ml for nadroparin (B), 0.1 U/ml for tinzaparin (C), 0.03 U/ml for unfractionated heparin (UFH) (D), 0.5 U/ml for hirudin (E) and 10 μg/ml for bivalirudin (F). The plasmas were subjected to thrombin generation analysis as described in the Materials and Methods section with 1 pM tissue factor (TF) as initiator of coagulation.
# as §2
# [4] = system: plasma deficient in coagulation factor VIII; experiment: Thrombin generation assay in plasma deficient in coagulation factor VIII; assay type: biochemical, human
# Description: FIG. 20: Plasma deficient in coagulation factor VIII was spiked with cyclodextrin OKL-1111 (A), OKL-1180 (B), and OKL-1187 (C) at the indicated concentrations.
# as §2
# [5] = system: plasma deficient in coagulation factor IX; experiment: Thrombin generation assay in plasma deficient in coagulation factor IX; assay type: biochemical, human
# Description: as §2
SMILES,procoagulant effect in normal plasma [2],procoagulant effect in factor VIII deficient plasma [4],procoagulant activity in factor IX deficient plasma [5],effect on the anticoagulant effect of apixaban [3],effect on the anticoagulant effect of dabigatran [3],effect on the anticoagulant effect of edoxaban [3],effect on the anticoagulant effect of rivaroxaban [3],further results
"NCC1OC2OC3C(CN)OC(OC4C(CN)OC(OC5C(CN)OC(OC6C(CN)OC(OC7C(CN)OC(OC8C(CN)OC(OC9C(CN)OC(OC1C(O)C2O)C(O)C9O)C(O)C8O)C(O)C7O)C(O)C6O)C(O)C5O)C(O)C4O)C(O)C3O (centres unmarked) [OKL-1147, reference compound]",no procoagulant effect,,,,,,,"clotting times ([1]; mice fed rivaroxaban for 4 days, cyclodextrin by tail vein injection 5 min before bleeding assay, OKL-1111 dose expected to give 25 μM in plasma): without any significant effect"
"O=C(O)CCSCC1OC2OC3C(CSCCC(=O)O)OC(OC4C(CSCCC(=O)O)OC(OC5C(CSCCC(=O)O)OC(OC6C(CSCCC(=O)O)OC(OC7C(CSCCC(=O)O)OC(OC8C(CSCCC(=O)O)OC(OC9C(CSCCC(=O)O)OC(OC1C(O)C2O)C(O)C9O)C(O)C8O)C(O)C7O)C(O)C6O)C(O)C5O)C(O)C4O)C(O)C3O (centres unmarked) [OKL-1170, reference compound]",did not show procoagulant activity,,,,,,,procoagulant effect in plasma containing anticoagulants (not specified / NOACs) [3]: did not show procoagulant activity; procoagulant activity (overview) ([2]; pooled normal plasma with and without the addition of anticoagulants): No
O=C(O)CCCCSCC1OC2OC3C(CSCCCCC(=O)O)OC(OC4C(CSCCCCC(=O)O)OC(OC5C(CSCCCCC(=O)O)OC(OC6C(CSCCCCC(=O)O)OC(OC7C(CSCCCCC(=O)O)OC(OC8C(CSCCCCC(=O)O)OC(OC9C(CSCCCCC(=O)O)OC(OC1C(O)C2O)C(O)C9O)C(O)C8O)C(O)C7O)C(O)C6O)C(O)C5O)C(O)C4O)C(O)C3O (centres unmarked) [OKL-1171],significant procoagulant activity,procoagulant effects,,,,,,
O=C(O)CCCCCCSCC1OC2OC3C(CSCCCCCCC(=O)O)OC(OC4C(CSCCCCCCC(=O)O)OC(OC5C(CSCCCCCCC(=O)O)OC(OC6C(CSCCCCCCC(=O)O)OC(OC7C(CSCCCCCCC(=O)O)OC(OC8C(CSCCCCCCC(=O)O)OC(OC9C(CSCCCCCCC(=O)O)OC(OC1C(O)C2O)C(O)C9O)C(O)C8O)C(O)C7O)C(O)C6O)C(O)C5O)C(O)C4O)C(O)C3O (centres unmarked) [OKL-1172],significant procoagulant activity,procoagulant effects,procoagulant activity,,,,,
OCCCCSCC1OC2OC3C(CSCCCCO)OC(OC4C(CSCCCCO)OC(OC5C(CSCCCCO)OC(OC6C(CSCCCCO)OC(OC7C(CSCCCCO)OC(OC8C(CSCCCCO)OC(OC9C(CSCCCCO)OC(OC1C(O)C2O)C(O)C9O)C(O)C8O)C(O)C7O)C(O)C6O)C(O)C5O)C(O)C4O)C(O)C3O (centres unmarked) [OKL-1174],strong procoagulant effects,procoagulant effects,procoagulant activity,,,,,procoagulant effect in plasma containing anticoagulants (not specified / NOACs) [3]: strong procoagulant effects
OCCCSCC1OC2OC3C(CSCCCO)OC(OC4C(CSCCCO)OC(OC5C(CSCCCO)OC(OC6C(CSCCCO)OC(OC7C(CSCCCO)OC(OC8C(CSCCCO)OC(OC1C(O)C2O)C(O)C8O)C(O)C7O)C(O)C6O)C(O)C5O)C(O)C4O)C(O)C3O (centres unmarked) [OKL-1181],significant procoagulant activity,procoagulant effects,procoagulant activity,,,,,
"O=C(O)CCCCCSCC1OC2OC3C(CO)OC(OC4C(CO)OC(OC5C(CO)OC(OC6C(CO)OC(OC7C(CO)OC(OC1C(O)C2O)C(O)C7O)C(O)C6O)C(O)C5O)C(O)C4O)C(O)C3O (stereo not drawn) [OKL-1186, Alpha-mono-S—C6-acid]",substantial procoagulant effect,,,antagonized,antagonized,antagonized,antagonized,
O=C(O)CCCCCCSCC1OC2OC3C(CO)OC(OC4C(CO)OC(OC5C(CO)OC(OC6C(CO)OC(OC7C(CO)OC(OC8C(CO)OC(OC1C(O)C2O)C(O)C8O)C(O)C7O)C(O)C6O)C(O)C5O)C(O)C4O)C(O)C3O (centres unmarked) [OKL-1188],strong procoagulant effect,procoagulant effects,procoagulant activity,antagonized,antagonized,antagonized,antagonized,
OCCCCSCC1OC2OC3C(CO)OC(OC4C(CO)OC(OC5C(CO)OC(OC6C(CO)OC(OC7C(CO)OC(OC8C(CO)OC(OC1C(O)C2O)C(O)C8O)C(O)C7O)C(O)C6O)C(O)C5O)C(O)C4O)C(O)C3O (centres unmarked) [OKL-1189],strong procoagulant activity,procoagulant effects,procoagulant activity,strongly antagonized,strongly antagonized,strongly antagonized,strongly antagonized,
O=C(O)CCCCCCSCC1OC2OC3C(CO)OC(OC4C(CO)OC(OC5C(CO)OC(OC6C(CO)OC(OC7C(CO)OC(OC8C(CO)OC(OC9C(CO)OC(OC1C(O)C2O)C(O)C9O)C(O)C8O)C(O)C7O)C(O)C6O)C(O)C5O)C(O)C4O)C(O)C3O (centres unmarked) [OKL-1190],procoagulant effect,,,antagonized,antagonized,antagonized,antagonized,
OCCCCSCC1OC2OC3C(CO)OC(OC4C(CO)OC(OC5C(CO)OC(OC6C(CO)OC(OC7C(CO)OC(OC8C(CO)OC(OC9C(CO)OC(OC1C(O)C2O)C(O)C9O)C(O)C8O)C(O)C7O)C(O)C6O)C(O)C5O)C(O)C4O)C(O)C3O (centres unmarked) [OKL-1191],Strong Procoagulant Activity,procoagulant effects,procoagulant activity,Antagonized,Antagonized,Antagonized,Antagonized,
O=C(NC[C@H]1CN(c2ccc(N3CCOCC3=O)cc2)C(=O)O1)c1ccc(Cl)s1 [rivaroxaban],,,,,,,,"number of clots in 30 minutes ([1]; mice fed rivaroxaban (0.1 mg per g of chow, 4 days), no cyclodextrin, non-anticoagulated about 20-25): 10-13 clots; bleeding time ([1]; mice fed rivaroxaban versus non-anticoagulated mouse): roughly doubled"
